Reference: PubChem BioAssay (NCI)
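Five concentrations, 48 hours, 96-well plates. TGI: total growth inhibition.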

Key:
Test in all cases: NCI tumour cell line growth inhibition, 48 h
[1] = system: SF-268 CNS
[2] = system: SN12C renal
[3] = system: SF-539 CNS
[4] = system: RPMI-8226 leukemia
[5] = system: KM12 colon
[6] = system: DMS 273 small cell lung
[7] = system: XF 498 CNS
[8] = system: NCI-H226 lung
[9] = system: MALME-3M melanoma
[10] = system: HCC-2998 colon
[11] = system: SK-MEL-2 melanoma
[12] = system: RXF 393 renal
[13] = system: HCT-15 colon
[14] = system: COLO 205 colon
[15] = system: A549 NSCLC
[16] = system: NCI-H460 lung
[17] = system: SNB-78 CNS
[18] = system: OVCAR-8 ovarian
[19] = system: HOP-92 NSCLC
[20] = system: DMS 114 small cell lung
[21] = system: HCT-116 colon
[22] = system: HL-60(TB) leukemia
[23] = system: SK-MEL-28 melanoma
[24] = system: HOP-18 NSCLC
[25] = system: DLD-1 colon
[26] = system: SR leukemia
[27] = system: KM20L2 colon
[28] = system: ACHN renal
[29] = system: SNB-75 CNS
[30] = system: MOLT-4 leukemia
[31] = system: SW-620 colon
[32] = system: NCI-H23 lung
[33] = system: 786-0 renal
[34] = system: SK-MEL-5 melanoma
[35] = system: M14 melanoma
[36] = system: LXFL 529 NSCLC
[37] = system: CCRF-CEM leukemia
[38] = system: EKVX NSCLC
[39] = system: K-562 leukemia
[40] = system: U251 CNS
[41] = system: SK-OV-3 ovarian
[42] = system: A498 renal
[43] = system: CAKI-1 renal
[44] = system: UO-31 renal
[45] = system: SF-295 CNS
[46] = system: M19-MEL melanoma
[47] = system: TK-10 renal
[48] = system: SNB-19 CNS
[49] = system: IGROV1 ovarian
[50] = system: HT29 colon
[51] = system: OVCAR-3 ovarian
[52] = system: OVCAR-4 ovarian
[53] = system: HOP-62 NSCLC
[54] = system: UACC-257 melanoma
[55] = system: NCI-H522 lung
[56] = system: LOX IMVI melanoma
[57] = system: UACC-62 melanoma
[58] = system: OVCAR-5 ovarian

Measured: TGI

CN(C)N=Nc1cccc(C(N)=O)c1
not listed: [53] | [54] | [55] | [56] | [57] | [58]
> 100 µM: all other assays above

O=C1NC2(CCCCC2)C2CCCCC=C12 (configuration not stated)
not listed: [8] | [10] | [27]
> 100 µM: all other assays above
